Among the test systems are MOLT-4; UACC-257; SK-MEL-5; PC-3; IGROV-1; OVCAR-3; Hs-578T; OVCAR-4; HCT-15; BT-549; HCT-116; KM12; U-251; NCI-H522; NCI-H23; SNB-75; SK-OV-3; HCC 2998; HL-60; RXF 393.
Common to all, as to test: NCI tumour cell line growth inhibition, 48 h

Each structure is given as a SMILES string.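 96-well plates; 48 h exposure; 5 concentrations. Endpoints by linear interpolation between flanking doses. Not reached: highest tested concentration assigned. The concentration for 50% growth inhibition is given as GI50.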 Activity calls are given as the source filed them. Rule as the data show it: active = GI50 up to about 1.1 µM and inactive = higher. Some results are limits rather than exact numbers.

For `CCCCCCCCCCCC1NC(N)=NC(CCCO)=C1C(=O)OC` (stereo not given), the GI50 in the assay on MOLT-4 is 1.86 µM (inactive); with UACC-257 it was 3.16 µM (inactive); in the assay with SK-MEL-5 it was 2.24 µM (inactive); in the assay on PC-3, 1.1 µM (active); in the assay on IGROV-1, 1.84 µM (inactive); in the assay on OVCAR-3, 2.37 µM (inactive). The GI50 in the assay with Hs-578T is 1.92 µM (inactive); with OVCAR-4, 2.97 µM (inactive); with HCT-15 it was 8.22 µM; in the assay with BT-549, 4.67 µM (inactive); with HCT-116 it was 1.92 µM (inactive); with KM12 it was 1.61 µM (inactive). Further, the GI50 with U-251 was 1.67 µM (inactive); in the assay on NCI-H522, 1.77 µM (inactive); in the assay with NCI-H23, 2.08 µM (inactive); in the assay with SNB-75 it was 2.79 µM (inactive); with SK-OV-3 it was 2.33 µM (inactive); in the assay on HCC 2998, 2.35 µM (inactive). In the assay on HL-60, the GI50 was 1.42 µM (inactive).
In the case of `O=C(O)C[S+]([O-])c1ccc2c3c(cccc13)C(=O)c1ccccc1-2` (stereo not given), the GI50 with UACC-257, in the assay on SK-MEL-5, with PC-3, in the assay with RXF 393, in the assay on IGROV-1 and in the assay on OVCAR-3 was > 100 µM (inactive) in each case. Besides, the GI50 in the assay with Hs-578T was > 100 µM (inactive); with OVCAR-4 it was > 100 µM (inactive); in the assay with HCT-15 it was greater than 100 µM; with BT-549 it was > 100 µM (inactive); with HCT-116, > 100 µM (inactive); in the assay with KM12, > 100 µM (inactive). In addition, the GI50 in the assay with U-251, in the assay with NCI-H522, in the assay on NCI-H23, with SNB-75, with SK-OV-3 and in the assay on HCC 2998 was > 100 µM (inactive) in each case. In addition, the GI50 with HL-60 was > 100 µM (inactive).
`C=CCc1cccc2cc(C(=O)Nc3nc(C45CC6CC(CC(C6)C4)C5)cs3)c(=O)oc12`: the GI50 in the assay on MOLT-4 is 34.7 µM (inactive); with UACC-257 it was 32.8 µM (inactive); with SK-MEL-5 it was 40.8 µM (inactive); in the assay on PC-3, 29.6 µM (inactive); in the assay on RXF 393 it was 6.08 µM (inactive); with IGROV-1, 27.8 µM (inactive). Also, the GI50 with OVCAR-3 was 24.4 µM (inactive); in the assay with Hs-578T it was 16.4 µM (inactive); with OVCAR-4 it was 21 µM (inactive); with HCT-15, 67 µM; in the assay with BT-549, 70 µM (inactive); in the assay on HCT-116, > 10 µM (inactive). The GI50 in the assay with KM12 is 28.1 µM (inactive); with U-251, 20.2 µM (inactive); with NCI-H522, 49.7 µM (inactive); in the assay on NCI-H23 it was 18 µM (inactive); in the assay with SNB-75, 24.2 µM (inactive); in the assay with HCC 2998, 33 µM (inactive). Moreover, the GI50 with HL-60 is 34 µM (inactive).
In the case of `c1ccc2c(-c3cnc(-c4c[nH]c5ccccc45)cn3)c[nH]c2c1`, the GI50 with UACC-257 is 43.4 µM (inactive); in the assay on SK-MEL-5 it was 50.1 µM (inactive); with PC-3 it was 38 µM (inactive); in the assay with RXF 393, 26.7 µM (inactive); in the assay on IGROV-1, 30.8 µM (inactive); with OVCAR-3, 27.2 µM (inactive). Moreover, the GI50 in the assay with Hs-578T was 57.8 µM (inactive); in the assay on OVCAR-4, > 100 µM (inactive); with HCT-15, 58.6 µM; in the assay with BT-549 it was > 100 µM (inactive); in the assay with HCT-116, 5.2 µM (inactive); with KM12, 74.1 µM (inactive). The GI50 was 49.7 µM (inactive) with U-251; 28.6 µM (inactive) in the assay with NCI-H522; 61.8 µM (inactive) with NCI-H23; 22.6 µM (inactive) with SNB-75; 49.1 µM (inactive) in the assay on SK-OV-3; 42.6 µM (inactive) with HCC 2998.
Turning to `CCN(CC)C(=S)SC` [METHYLDIETHYL CARBAMODITHIOATE], the GI50 with MOLT-4 is > 100 µM (inactive); in the assay on UACC-257 it was > 100 µM (inactive); in the assay with SK-MEL-5, > 100 µM (inactive); with PC-3 it was 52.5 µM (inactive); in the assay on RXF 393 it was > 100 µM (inactive); with IGROV-1, > 100 µM (inactive). For the same molecule, the GI50 with OVCAR-3 was > 100 µM (inactive); in the assay on Hs-578T, > 100 µM (inactive); in the assay on HCT-15 it was greater than 100 µM; in the assay on BT-549, > 100 µM (inactive); with HCT-116 it was > 100 µM (inactive); with U-251 it was > 100 µM (inactive). In addition, the GI50 in the assay on NCI-H522, in the assay on NCI-H23, in the assay with SNB-75, in the assay with SK-OV-3, in the assay on HCC 2998 and in the assay with HL-60 was > 100 µM (inactive) in each case.
For the molecule `O=C1C(/C=C/c2ccc(Cl)cc2)=NNC2N1N=C1NC(=O)C3(NN12)c1ccccc1-c1ccccc13` (stereo not given), the GI50 with UACC-257, with SK-MEL-5, in the assay on PC-3, in the assay on RXF 393, with IGROV-1 and in the assay on OVCAR-3 was > 100 µM (inactive) in each case. Further, the GI50 in the assay with Hs-578T was 65.6 µM (inactive); in the assay on OVCAR-4 it was > 100 µM (inactive); in the assay with HCT-15, 69.5 µM; with BT-549, > 100 µM (inactive); with HCT-116 it was > 100 µM (inactive); in the assay with U-251, > 100 µM (inactive). Besides, the GI50 with NCI-H522, with NCI-H23, in the assay on SNB-75, in the assay on SK-OV-3, with HCC 2998 and in the assay on HL-60 was > 100 µM (inactive) in each case.
Consider `O=c1/c(=C/c2ccc(-c3ccc(Cl)cc3Cl)o2)sc2n1[C@@H](c1ccc(Cl)cc1)C=C(c1cc(F)c(Cl)cc1Cl)N=2`, for which the GI50 is 22.4 µM (inactive) in the assay with MOLT-4; 34.6 µM (inactive) in the assay on UACC-257; 46.5 µM (inactive) in the assay on SK-MEL-5; > 100 µM (inactive) in the assay with PC-3; 31.2 µM (inactive) in the assay on RXF 393; 33 µM (inactive) in the assay on IGROV-1. Moreover, the GI50 with Hs-578T was 29.6 µM (inactive); with OVCAR-4, 41.9 µM (inactive); with HCT-15 it was 35.6 µM; with BT-549 it was 45.8 µM (inactive); with HCT-116, 37.9 µM (inactive); with KM12, 87.5 µM (inactive). In addition, the GI50 in the assay with U-251 was 31.5 µM (inactive); with NCI-H522, 84.3 µM (inactive); with NCI-H23, 36.6 µM (inactive); in the assay on SNB-75, 63.4 µM (inactive); in the assay on SK-OV-3, 19.2 µM (inactive); in the assay on HCC 2998, 12.8 µM (inactive). For the same molecule, the GI50 in the assay on HL-60 is < 0.01 µM (active).
`Cc1nc2c(=O)[nH]c3ccc(Cl)cc3c2o1`: the GI50 was > 100 µM (inactive) in the assay with MOLT-4; > 100 µM (inactive) in the assay with UACC-257; > 100 µM (inactive) in the assay with SK-MEL-5; > 100 µM (inactive) in the assay on PC-3; > 100 µM (inactive) in the assay with RXF 393; 89.7 µM (inactive) with IGROV-1. Also, the GI50 is > 100 µM (inactive) with OVCAR-3; > 100 µM (inactive) with Hs-578T; > 100 µM (inactive) in the assay with OVCAR-4; greater than 100 µM in the assay with HCT-15; > 100 µM (inactive) with BT-549; > 100 µM (inactive) in the assay with HCT-116. Further, the GI50 in the assay with KM12, in the assay on U-251, in the assay with NCI-H522, in the assay with NCI-H23, in the assay on SNB-75 and in the assay on SK-OV-3 was > 100 µM (inactive) in each case. Moreover, the GI50 in the assay with HCC 2998 was > 100 µM (inactive).
Regarding `NC(=O)C(C(N)=O)=C(O)/C(O)=C/C(=O)c1ccccc1`, the GI50 with UACC-257 is > 100 µM (inactive); with SK-MEL-5 it was 73.8 µM (inactive); with PC-3, > 100 µM (inactive); in the assay on RXF 393, > 100 µM (inactive); in the assay on IGROV-1 it was > 100 µM (inactive); with OVCAR-3, 51.4 µM (inactive). The GI50 is > 100 µM (inactive) with Hs-578T; > 100 µM (inactive) in the assay on OVCAR-4; greater than 100 µM in the assay with HCT-15; 48.5 µM (inactive) with BT-549; > 100 µM (inactive) with HCT-116; > 100 µM (inactive) in the assay with KM12. Also, the GI50 is > 100 µM (inactive) with U-251; 16.4 µM (inactive) with NCI-H522; > 100 µM (inactive) in the assay on NCI-H23; > 100 µM (inactive) in the assay on SNB-75; > 100 µM (inactive) in the assay on SK-OV-3; > 100 µM (inactive) in the assay on HCC 2998. In addition, the GI50 in the assay with HL-60 was 28.4 µM (inactive).
Turning to `CC(C)C(=O)NCC[C@@H](CNC(=O)OC(C)(C)C)NC(=O)OC(C)(C)C`, the GI50 in the assay with MOLT-4, in the assay on UACC-257, in the assay on SK-MEL-5, in the assay with PC-3, with RXF 393 and in the assay on IGROV-1 was > 100 µM (inactive) in each case. Moreover, the GI50 with OVCAR-3 is > 100 µM (inactive); in the assay with Hs-578T, > 100 µM (inactive); in the assay with OVCAR-4, > 100 µM (inactive); with HCT-15 it was greater than 100 µM; in the assay with BT-549 it was > 100 µM (inactive); in the assay on HCT-116, > 100 µM (inactive). Further, the GI50 with KM12, in the assay on U-251, in the assay on NCI-H522, in the assay with NCI-H23, in the assay with SNB-75 and in the assay on SK-OV-3 was > 100 µM (inactive) in each case. Besides, the GI50 in the assay with HCC 2998 was > 100 µM (inactive).
As for `CCCCCCC(O)C(O)CCC(O)C1CCC(CCCCC(O)CC2=CC(C)OC2=O)O1` (stereo not given) [ACETOGENINS], the GI50 in the assay on MOLT-4 was 2.59 µM (inactive); with UACC-257, 1.86 µM (inactive); in the assay on SK-MEL-5 it was 1.04 µM (active); with PC-3, 2.78 µM (inactive); with RXF 393 it was 5.87 µM (inactive); in the assay with IGROV-1 it was 2.95 µM (inactive). Further, the GI50 is 1.71 µM (inactive) in the assay with OVCAR-3; 2.23 µM (inactive) in the assay on Hs-578T; 17.5 µM (inactive) in the assay on OVCAR-4; 4.53 µM with HCT-15; 23.4 µM (inactive) with BT-549; 2.8 µM (inactive) with HCT-116. Also, the GI50 in the assay with KM12 is 2.15 µM (inactive); with U-251, 3.54 µM (inactive); in the assay with NCI-H522, 7.71 µM (inactive); in the assay with NCI-H23 it was 0.161 µM (active); in the assay on SNB-75 it was 2.69 µM (inactive); in the assay with HCC 2998, 15.9 µM (inactive).

(Values after ChEMBL document CHEMBL1201862, “PubChem BioAssay data set” (2004).)
